How the values were obtained:
[1] = tested on: MDR1-MDCK cell monolayers; conditions: dog, MDCK-MDR1, 120 min, 5 μM, pH 7.4
Method: (§1) Example A13: Assessment of Blood-Brain-Barrier (BBB) Penetration Potential Via an MDCK-MDR1 Permeability Assay
(§2) The permeability of compounds is assessed for BBB penetration potential by use of an MDCK-MDR1 assay (Catalog EA203) performed by Absorption Systems, Exton PA.
(§3) Experimental Procedure: MDR1-MDCK cell monolayers are grown to confluence on collagen-coated, microporous membranes in 12-well assay plates. The permeability assay buffer is Hanks' balanced salt solution containing 10 mM HEPES and 15 mM glucose at a pH of 7.4. The buffer in the receiver chamber also contained 1% bovine serum albumin. The dosing solution concentration is 5 μM of test article in the assay buffer. Cell monolayers are dosed on the apical side (A-to-B) or basolateral side (B-to-A) and incubated at 37° C. with 5% CO2 in a humidified incubator. Samples are taken from the donor and receiver chambers at 120 minutes. Each determination is performed in duplicate. The flux of lucifer yellow is also measured post-experimentally for each monolayer to ensure no damage is inflicted to the cell monolayers during the flux period. All samples are assayed by LC-MS/MS using electrospray ionization.
(§4) The apparent permeability (Papp) and percent recovery are calculated as follows:
(§5) Analytical Method: Liquid Chromatography. Column: Waters ACQUITY UPLC BEH Phenyl 30 ×2.1 mm, 1.7 μm; M.P. Buffer. 25 mM ammonium formate buffer, pH 3.5; Aqueous Reservoir (A): 90% water, 10% buffer, Organic Reservoir (B): 90% acetonitrile, 10% buffer, Flow Rate: 0.7 mL/minute; Gradient Program:
(§6) • Total Run Time: 1.00 minute • Autosampler. 2 μL injection volume • Wash1: water/methanol/2-propanol:1/1/1; with 0.2% formic acid • Wash2: 0.1% formic acid in water • Brain Penetration • Potential Classification: A-B Papp≥3.0 and Efflux Ratio <3.0: High • A-B Papp≥3.0 and 10≥Efflux Ratio >3.0: Moderate • A-B Papp≥3.0 and Efflux Ratio≥10: Low • A-B Papp<3.0: Low

[2] = tested on: mHTT protein in GM04724 (CAG 70/20) Huntington's disease patient lymphoblast cells; experiment: mHTT protein assay, 2B7-MW1 assay via Mesoscale Discovery (MSD); assay type: cell-based, human; conditions: GM04724 Huntington's disease patient lymphoblasts
Outline: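 Signal from the 2B7-MW1 antibody pair on MSD, rising with polyQ length and smaller HTT fragments, measured mHTT after 48 h compound exposure (0.6 nM–10 μM) in GM04724 cells. A parallel replicate plate gave CellTiter Glo viability.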

[3] = tested on: SMN protein in spinal muscular atrophy (SMA) patient fibroblasts (GM03813, Coriell); experiment: SMN protein assay, Mesoscale Discovery (MSD); assay type: cell-based, human; conditions: SMA patient fibroblasts GM03813, 48 hours, MSD; for EC50: read-out: SMN2 protein EC50
Outline: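 Absolute SMN levels were quantified by MSD against an SMN protein standard curve (1 μg/ml to 19.5 pg/ml) run on each plate. Samples were lysates of GM03813 patient fibroblasts (7000 cells/well) treated 48 hours with compound doses from 2.5 μM down to 0.6 nM.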

MDR1 (P-gp) = experiment: in vitro; conditions: dog, MDCK-MDR1, pH 7.4
Method: as §1, §2, §3, §4, §5, §6

MDR1 = experiment: in vitro; conditions: dog, MDCK-MDR1, pH 7.4
Method: as §1, §2, §3, §4, §5, §6

SMILES	MDCK-MDR1: % Recov A-B [1] [%]	MDCK-MDR1: % Recov B-A [1] [%]	mHTT protein EC50 [2]	SMN2 protein EC50 [3]	Papp A→B at 120 min, 5 μM (MDR1 (P-gp)) [×10⁻⁶ cm/s]	Papp B→A at 120 min, 5 μM (MDR1 (P-gp)) [×10⁻⁶ cm/s]	efflux ratio at 120 min, 5 μM (MDR1)	EC50 [2] [nM]	EC50 [3] [nM]
CC(=O)Nc1ccc(-c2ccc(N(C)[C@H]3C[C@@H]4CC[C@@H](N4)[C@H]3F)nn2)c(O)c1 (single isomer, unassigned) [Compound 32B]	95	95	E (501 ≤ E ≤ 10.000)	E (501 ≤ E ≤ 10.000)	0.27	21.2	78	–	–
CN(C)C(=O)c1cc(O)c(-c2ccc(N(C)[C@@H]3C[C@H]4CC[C@H](N4)[C@@H]3F)nn2)cc1F (single isomer, unassigned) [Compound 53A]	96	114	E (501 ≤ E ≤ 10.000)	E (501 ≤ E ≤ 10.000)	0.32	41	127	–	–
CN(C)C(=O)c1cc(O)c(-c2ccc(N(C)[C@H]3C[C@@H]4CC[C@@H](N4)[C@H]3F)nn2)cc1F (single isomer, unassigned) [Compound 53B]	100	112	E (501 ≤ E ≤ 10.000)	E (501 ≤ E ≤ 10.000)	0.27	41.8	153	–	–
O=c1c2cc(O)c(-c3ccc(N(C4CC4)[C@@H]4C[C@H]5CC[C@H](N5)[C@@H]4F)nn3)cc2ncn1CC(F)(F)F (single isomer, unassigned) [Compound 60A]	94	100	E (501 ≤ E ≤ 10.000)	E (501 ≤ E ≤ 10.000)	0.44	65.9	151	–	–
O=c1c2cc(O)c(-c3ccc(N(C4CC4)[C@H]4C[C@@H]5CC[C@@H](N5)[C@H]4F)nn3)cc2ncn1CC(F)(F)F (single isomer, unassigned) [Compound 60B]	88	92	–	–	0.68	53	77	101 to 500	101 to 500
CCc1cn(-c2ccc(-c3ccc(N(C)[C@@H]4C[C@H]5CC(F)(F)[C@@H](C4)N5)nn3)c(O)c2)nn1 (single isomer, unassigned) [Compound 64A]	64	78	E (501 ≤ E ≤ 10.000)	E (501 ≤ E ≤ 10.000)	7.18	52.2	7	–	–
CCc1cn(-c2ccc(-c3ccc(N(C)[C@H]4C[C@@H]5CC(F)(F)[C@H](C4)N5)nn3)c(O)c2)nn1 (single isomer, unassigned) [Compound 64B]	69	83	–	E (501 ≤ E ≤ 10.000)	5.61	58.6	10	101 to 500	–
CN(c1ccc(-c2cc3cc[nH]c(=O)c3s2)nn1)[C@@H]1C[C@H]2CC[C@H](N2)[C@@H]1F (single isomer, unassigned) [Compound 66A]	93	100	E (501 ≤ E ≤ 10.000)	E (501 ≤ E ≤ 10.000)	0.09	4.4	51	–	–
CN(c1ccc(-c2cc3cc[nH]c(=O)c3s2)nn1)[C@H]1C[C@@H]2CC[C@@H](N2)[C@H]1F (single isomer, unassigned) [Compound 66B]	98	98	E (501 ≤ E ≤ 10.000)	E (501 ≤ E ≤ 10.000)	0.07	4.64	68	–	–
CN(c1ccc(-c2cc3ccn(C)c(=O)c3s2)nn1)[C@@H]1C[C@H]2CC[C@H](N2)[C@@H]1F (single isomer, unassigned) [Compound 67A]	94	99	E (501 ≤ E ≤ 10.000)	E (501 ≤ E ≤ 10.000)	0.42	37.9	90	–	–
CN(c1ccc(-c2cc3ccn(C)c(=O)c3s2)nn1)[C@H]1C[C@@H]2CC[C@@H](N2)[C@H]1F (single isomer, unassigned) [Compound 67B]	91	96	E (501 ≤ E ≤ 10.000)	E (501 ≤ E ≤ 10.000)	0.47	40.9	86	–	–
CN(c1ccc(-c2cc(C#N)ccc2O)nn1)[C@@H]1C[C@H]2CC[C@H](N2)[C@@H]1F (single isomer, unassigned) [Compound 70A]	86	89	E (501 ≤ E ≤ 10.000)	–	3.17	60.2	19	–	101 to 500
CN(c1ccc(-c2cnc(C#N)cc2O)nn1)[C@@H]1C[C@H]2CC[C@H](N2)[C@@H]1F (single isomer, unassigned) [Compound 71A]	88	92	E (501 ≤ E ≤ 10.000)	E (501 ≤ E ≤ 10.000)	3.87	26.2	7	–	–
CN(c1ccc(-c2cnc(C#N)cc2O)nn1)[C@H]1C[C@@H]2CC[C@@H](N2)[C@H]1F (single isomer, unassigned) [Compound 71B]	90	89	E (501 ≤ E ≤ 10.000)	E (501 ≤ E ≤ 10.000)	5.04	20.9	4	–	–
CNC(=O)c1ccc(-c2ccc(N(C)[C@@H]3C[C@H]4CC[C@H](N4)[C@@H]3F)nn2)c(O)c1 (single isomer, unassigned) [Compound 77A]	104	110	E (501 ≤ E ≤ 10.000)	–	0.29	36.3	124	–	101 to 500
CN(c1ccc(-c2cn3c(=O)ccnc3cc2O)nn1)[C@@H]1C[C@H]2CC[C@H](N2)[C@@H]1F (single isomer, unassigned) [Compound 82A]	104	121	E (501 ≤ E ≤ 10.000)	–	0.08	3.33	40	–	101 to 500
CN(c1ccc(-c2cn3c(=O)ccnc3cc2O)nn1)[C@H]1C[C@@H]2CC[C@@H](N2)[C@H]1F (single isomer, unassigned) [Compound 82B]	72	110	E (501 ≤ E ≤ 10.000)	–	< 0.21	3.28	> 15	–	101 to 500
CN(c1ccc(-c2ccc(Oc3cnn(C)c3)cc2O)nn1)[C@@H]1C[C@H]2CC[C@H](N2)[C@@H]1F (single isomer, unassigned) [Compound 91A]	84	82	E (501 ≤ E ≤ 10.000)	–	4.19	62.8	15	–	101 to 500
CN(c1ccc(-c2ccc(Oc3cnn(C)c3)cc2O)nn1)[C@H]1C[C@@H]2CC[C@@H](N2)[C@H]1F (single isomer, unassigned) [Compound 91B]	106	102	E (501 ≤ E ≤ 10.000)	E (501 ≤ E ≤ 10.000)	3.94	73.3	19	–	–
CN1[C@@H]2CC[C@H]1[C@H](F)[C@H](N(c1ccc(-c3cc4oc(C(=O)N5CCC5)cc4cc3O)nn1)C1CC1)C2 (single isomer, unassigned) [Compound 92A]	93	88	E (501 ≤ E ≤ 10.000)	E (501 ≤ E ≤ 10.000)	1.23	57.8	47	–	–
CN1[C@H]2CC[C@@H]1[C@@H](F)[C@@H](N(c1ccc(-c3cc4oc(C(=O)N5CCC5)cc4cc3O)nn1)C1CC1)C2 (single isomer, unassigned) [Compound 92B]	94	105	–	–	1.16	52.3	45	101 to 500	101 to 500
CN(c1ccc(-c2cc3occc(=O)c3cc2O)nn1)[C@@H]1C[C@H]2CC[C@@H]([C@@H]1F)N2C (single isomer, unassigned) [Compound 94A]	68	71	E (501 ≤ E ≤ 10.000)	–	4.99	33.9	7	–	101 to 500

From US12509460B2 (Skyhawk Therapeutics, Inc., priority 2019, dated 2025)
